Assays:
Conditions in all cases: incubation time: 72 h
HDQ-P1 = test: normalised viability (% of control), CellTiter-Blue; higher = more viable cells (about 100 = DMSO control)
Procedure, shortened: (§1)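 Breast cancer cell lines were treated for 72 h in 384-well format and measured by CellTiter-Blue fluorescence at 560/590 nm. Results were normalised per plate to vehicle (100) and a positive kill control (0). The entry is normalised viability at a single listed concentration of the series.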

MDA-MB-453 [1] = test: as above
Procedure, shortened: as §1

MFM-223 [2] = test: as above
Procedure, shortened: as §1

CAL-85-1 [3] = test: as above
Procedure, shortened: as §1

SK-BR-3 = test: as above
Procedure, shortened: as §1

BT-474 = test: as above
Procedure, shortened: as §1

CAL-51 [4] = test: as above
Procedure, shortened: as §1

MDA-MB-468 [5] = test: as above
Procedure, shortened: as §1

MDA-MB-436 [6] = test: as above
Procedure, shortened: as §1

HCC1599 = test: as above
Procedure, shortened: as §1

HCC1937 = test: as above
Procedure, shortened: as §1

MDA-MB-231 [7] = test: as above
Procedure, shortened: as §1

BT-549 [8] = test: as above
Procedure, shortened: as §1

CAL-148 [9] = test: as above
Procedure, shortened: as §1

CAL-120 = test: as above
Procedure, shortened: as §1

HCC1143 [10] = test: as above
Procedure, shortened: as §1

DU-4475 [11] = test: as above
Procedure, shortened: as §1

Hs578T [12] = test: as above
Procedure, shortened: as §1

MDA-MB-453 [13] = test: drug sensitivity score (DSS), CellTox Green (DSS (AUC-based score)); higher = stronger drug effect (viability inhibition or cytotoxicity); extreme values may be limits of the assay
Procedure, shortened: (§2)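 Compound was dispensed into 384-well plates at 5 concentrations in 10-fold steps spanning a 10,000-fold range chosen for each compound, and 20 µl of breast cancer cell suspension was added before 72 h of incubation. CellTox Green fluorescence was read at 485/520 nm, followed by CellTiter-Glo luminescence after 10 min at room temperature. Values on each plate were normalised to 0.1 % DMSO and a positive kill control. The drug sensitivity score came from the area under the fitted dose-response curve.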

MFM-223 [14] = test: as above
Procedure, shortened: as §2

CAL-85-1 [15] = test: as above
Procedure, shortened: as §2

CAL-51 [16] = test: as above
Procedure, shortened: as §2

MDA-MB-468 [17] = test: as above
Procedure, shortened: as §2

MDA-MB-436 [18] = test: as above
Procedure, shortened: as §2

MDA-MB-231 [19] = test: as above
Procedure, shortened: as §2

BT-549 [20] = test: as above
Procedure, shortened: as §2

CAL-148 [21] = test: as above
Procedure, shortened: as §2

DU-4475 [22] = test: as above
Procedure, shortened: as §2

HCC1143 [23] = test: as above
Procedure, shortened: as §2

Hs578T [24] = test: as above
Procedure, shortened: as §2

| Compound | normalised viability (HDQ-P1; 3 nM) | normalised viability (MDA-MB-453 [1]; 3 nM) | normalised viability (MFM-223 [2]; 10 nM) | normalised viability (CAL-85-1 [3]; 3 nM) | normalised viability (SK-BR-3; 10 nM) | normalised viability (BT-474; 10 nM) | normalised viability (CAL-51 [4]; 3 nM) | normalised viability (MDA-MB-468 [5]; 10 nM) | drug sensitivity score (MDA-MB-453 [13]) | drug sensitivity score (MFM-223 [14]) | drug sensitivity score (CAL-85-1 [15]) | drug sensitivity score (CAL-51 [16]) | drug sensitivity score (MDA-MB-468 [17]) | drug sensitivity score (MDA-MB-436 [18]) | drug sensitivity score (MDA-MB-231 [19]) | drug sensitivity score (BT-549 [20]) | drug sensitivity score (CAL-148 [21]) | drug sensitivity score (DU-4475 [22]) | drug sensitivity score (HCC1143 [23]) | drug sensitivity score (Hs578T [24]) | further results |
| --- | --- | --- | --- | --- | --- | --- | --- | --- | --- | --- | --- | --- | --- | --- | --- | --- | --- | --- | --- | --- | --- |
| CC(C)(C#N)c1cc(Cn2cncn2)cc(C(C)(C)C#N)c1 [Anastrozole] | 102% | 104% | 96.9% | 93.4% | 95.1% | 110% | 112% | 102% | 0.209 | 0 | 0 | 0 | 0 | 0 | 0 | 0 | 0 | 0 |  |  | normalised viability (MDA-MB-436 [6]; 10 nM): 109%; normalised viability (HCC1599; 10 nM): 98%; normalised viability (HCC1937; 10 nM): 90.3%; normalised viability (MDA-MB-231 [7]; 10 nM): 96.3%; normalised viability (BT-549 [8]; 10 nM): 94%; normalised viability (CAL-148 [9]; 3 nM): 93.3%; normalised viability (CAL-120; 10 nM): 84.3%; normalised viability (HCC1143 [10]; 10 nM): 73.5%; normalised viability (DU-4475 [11]; 3 nM): 106%; normalised viability (Hs578T [12]; 10 nM): 99.4% |
| CNNCc1ccc(C(=O)NC(C)C)cc1 [Procarbazine] | 146% | 114% | 98.4% | 95.6% | 110% | 106% | 107% | 105% |  | 0 | 1.2 | 0 | 3.72 | 0 | 0 | 0 | 0 | 0 | 0 | 0 | normalised viability (MDA-MB-436 [6]; 10 nM): 97%; normalised viability (HCC1599; 10 nM): 97.4%; normalised viability (HCC1937; 10 nM): 87%; normalised viability (MDA-MB-231 [7]; 10 nM): 109%; normalised viability (BT-549 [8]; 10 nM): 111%; normalised viability (CAL-148 [9]; 3 nM): 103%; normalised viability (CAL-120; 10 nM): 104%; normalised viability (HCC1143 [10]; 10 nM): 93.1%; normalised viability (DU-4475 [11]; 3 nM): 90.7%; normalised viability (Hs578T [12]; 10 nM): 105% |
| Cn1c(=O)n(-c2ccc(C(C)(C)C#N)cc2)c2c3cc(-c4cnc5ccccc5c4)ccc3ncc21 [Dactolisib] |  |  |  |  |  |  |  |  | 0 | 2.01 | 2.63 | 0 | 0 | 0 | 0 | 0 | 11.7 | 0 | 0 | 0 |  |
| Nc1nc(OCc2cc(Br)cs2)c2[nH]cnc2n1 [Lomeguatrib] |  |  |  |  |  |  |  |  | 0 | 0 | 0 | 0 | 0 | 0 | 0 | 0 | 0 | 0 | 0 | 0 |  |
| Cc1cc2c(C(C)C)c(O)c(O)c(C=O)c2c(O)c1-c1c(C)cc2c(C(C)C)c(O)c(O)c(C=O)c2c1O [Gossypol] |  |  |  |  |  |  |  |  |  |  |  |  |  |  |  |  |  |  |  |  | normalised viability (HDQ-P1; 30 nM): 139%; normalised viability (MDA-MB-453 [1]; 30 nM): 106%; normalised viability (MFM-223 [2]; 100 nM): 105%; normalised viability (CAL-85-1 [3]; 30 nM): 101%; normalised viability (SK-BR-3; 100 nM): 106%; normalised viability (BT-474; 100 nM): 115%; normalised viability (CAL-51 [4]; 30 nM): 97.1%; normalised viability (MDA-MB-468 [5]; 100 nM): 101%; normalised viability (MDA-MB-436 [6]; 100 nM): 106%; normalised viability (HCC1599; 100 nM): 87.6%; normalised viability (HCC1937; 100 nM): 116%; normalised viability (MDA-MB-231 [7]; 100 nM): 94.1%; normalised viability (BT-549 [8]; 100 nM): 114%; normalised viability (CAL-148 [9]; 30 nM): 94.2%; normalised viability (CAL-120; 100 nM): 109%; normalised viability (HCC1143 [10]; 100 nM): 115%; normalised viability (DU-4475 [11]; 30 nM): 94.1%; normalised viability (Hs578T [12]; 100 nM): 137% |
| CC(C)c1c(C(=O)Nc2ccccc2)c(-c2ccccc2)c(-c2ccc(F)cc2)n1CC[C@@H](O)C[C@@H](O)CC(=O)O [Atorvastatin] |  |  |  |  |  |  |  |  | 0.0639 | 0 | 0 | 13.9 | 0 | 0 | 13.1 | 0 | 0 | 0 | 0 | 4.71 |  |
| Cn1c(=O)n(-c2ccc(C(C)(C)C#N)cc2)c2c3cc(-c4cnc5ccccc5c4)ccc3ncc21 [NVP-BEZ235] |  |  |  |  |  |  |  |  |  |  |  |  |  |  |  |  |  |  |  |  | normalised viability (HDQ-P1; 0.3 nM): 110%; normalised viability (MDA-MB-453 [1]; 0.3 nM): 110%; normalised viability (MFM-223 [2]; 1 nM): 99.1%; normalised viability (CAL-85-1 [3]; 0.3 nM): 96.6%; normalised viability (SK-BR-3; 1 nM): 105%; normalised viability (BT-474; 1 nM): 105%; normalised viability (CAL-51 [4]; 0.3 nM): 105%; normalised viability (MDA-MB-468 [5]; 1 nM): 102%; normalised viability (MDA-MB-436 [6]; 1 nM): 126%; normalised viability (HCC1599; 1 nM): 104%; normalised viability (HCC1937; 1 nM): 128%; normalised viability (MDA-MB-231 [7]; 1 nM): 97.4%; normalised viability (BT-549 [8]; 1 nM): 101%; normalised viability (CAL-148 [9]; 0.3 nM): 95.2%; normalised viability (CAL-120; 1 nM): 89.8%; normalised viability (HCC1143 [10]; 1 nM): 83.5%; normalised viability (DU-4475 [11]; 0.3 nM): 125%; normalised viability (Hs578T [12]; 1 nM): 100% |
| CN(C)C[C@@H]1CCn2cc(c3ccccc32)C2=C(C(=O)NC2=O)c2cn(c3ccccc23)CCO1 [Ruboxistaurin] | 79.3% | 94.7% | 97.6% | 105% | 101% | 96.7% | 98.6% | 94.5% | 4.68 | 0 | 7.2 | 9.21 | 6.81 | 5.62 | 7.98 | 2.34 | 10.6 | 0 | 0 |  | normalised viability (MDA-MB-436 [6]; 10 nM): 94.1%; normalised viability (HCC1599; 10 nM): 109%; normalised viability (HCC1937; 10 nM): 44.5%; normalised viability (MDA-MB-231 [7]; 10 nM): 95%; normalised viability (BT-549 [8]; 10 nM): 85.2%; normalised viability (CAL-148 [9]; 3 nM): 124%; normalised viability (CAL-120; 10 nM): 108%; normalised viability (HCC1143 [10]; 10 nM): 135%; normalised viability (DU-4475 [11]; 3 nM): 113%; normalised viability (Hs578T [12]; 10 nM): 96.4% |
